According to patent US10815235B2, “Polycyclic compounds and uses thereof” (priority 2017, dated 2020):
pEC50, pIC50: −log10 of the molar value. Read-outs that look alike come from different tables or passages of the source.

Assays:
Dopamine D2L receptor = Dopamine D2L receptor (Homo sapiens, UniProt P14416); test: GTPγS Scintillation Proximity Assay, agonist and antagonist mode; assay type: biochemical
Description: (§1) Antagonist and agonist activities were determined using a GTPγS Scintillation Proximity Assay. The assay was prepared as follows: Membrane extracts were prepared from recombinant human Dopamine D2L, D3; Serotonin 5-HT1A, 5-HT1B, 5-HT1D and 5-HT1F receptors.
(§2) Samples were tested by proprietary biological assays by Ogeda S. A., Euroscreen FAST Business Unit, Rue Adrienne Bolland, 47 B-6041 Gosselies, Belgium. Each protein assay was prepared using the following conditions.
(§3) D2L • Assay buffer: 20 mM HEPES pH 7.4; 100 mM NaCl, 10 μg/ml saponin, 30 mM MgCl2, 0.1% protease-free BSA; • Membranes: recombinant D2L membrane extracts thawed on ice and diluted in assay buffer to give 1 mg/ml (10 μg/well) and kept on ice; • GDP: diluted in assay buffer to give a 3 μM final assay concentration; • Beads: PVT-WGA (Perkin Elmer, RPNQ001), diluted in assay buffer at 25 mg/ml (0.25 mg/well); and • GTPγ^35S: (PerkinElmer NEG030X), diluted in assay buffer to give 0.1 nM. D3 • Assay buffer: 20 mM HEPES pH 7.4; 100 mM NaCl, 10 μg/ml saponin, 1 mM MgCl2, 0.1% protease-free BSA; • Membranes: recombinant D3 membrane extracts thawed on ice and diluted in assay buffer to give 1 mg/ml (10 μg/well) and kept on ice; • GDP: diluted in assay buffer to give a 1 μM final assay concentration; • Beads: PVT-WGA (Perkin Elmer, RPNQ001), diluted in assay buffer at 50 mg/ml (0.5 mg/well); and • GTPγ^35S: (PerkinElmer NEG030X), diluted in assay buffer to give 0.1 nM.
(§4) Membranes were mixed with GDP (volume:volume 1:1) and incubated for at least 15 min on ice. In parallel, GTPγ[^35S] is mixed with the beads (volume:volume 1:1) just before starting the reaction.
(§5) To determine agonist activity, the following reagents were added in the wells of an Optiplate (Perkin Elmer): 50 μL of test or reference ligand, 10 μL of assay buffer, 20 μl of the membranes:GDP mix, and 20 μL of the GTPγ[^35S]:beads mix. EC50 values were used to determine whether a compound acted as an agonist.
(§6) To determine antagonist activity, the following reagents were added in the wells of an Optiplate (Perkin Elmer): 50 μL of test or reference ligand, 20 μL of the membranes:GDP mix, then the plate is incubated 15 minutes at room temperature. After incubation, 10 μL of reference agonist at historical EC80 (final concentration) was added, followed by 20 μL of the GTPγ[^35S]:beads mix.
(§7) The plates were covered with a top seal, mixed on an orbital shaker for 2 min, and then incubated for 1 hour at room temperature. Then the plates were centrifuged for 10 min at 2000 rpm, incubated at room temperature 1 hour and counted for 1 min/well with a PerkinElmer TopCount reader. IC50 values were used to determine whether a compound acted as an antagonist.

Dopamine D3 receptor = Dopamine D3 receptor (Homo sapiens, UniProt P35462); test: as above; assay type: biochemical
Description: as §1, §2, §3, §4, §5, §6, §7

[1] = target: Serotonin 5-HT1D receptor (Homo sapiens, UniProt P28221); test: as above; assay type: biochemical
Description: as §1, §2
5-HT1D • Assay buffer: 20 mM HEPES pH 7.4; 200 mM NaCl, 10 μg/ml saponin, 3 mM MgCl2; • Membranes: recombinant 5-HT1D membrane extracts thawed on ice and diluted in assay buffer to give […] and kept on ice; • GDP: diluted in assay buffer to give a 30 μM working solution (3 μM final concentration); • Beads: PVT-WGA (Perkin Elmer, RPNQ001), diluted in assay buffer at 50 mg/ml (0.5 mg/10 μl); and • GTPγ^35S: (PerkinElmer NEG030X), diluted in assay buffer to give 0.1 nM.
as §4, §5, §6, §7

Serotonin 5-HT7 receptor = target: T1, Serotonin 5-HT7 receptor (Homo sapiens, UniProt P34969); test: cAMP HTRF Assay for Gs Coupled Receptors, agonist and antagonist mode; assay type: cell-based
T1 construct: expressed in transfected cells; host or cells: CHO-K1
Description: Antagonist and agonist activities were shown using a cAMP HTRF Assay for Gs Coupled Receptors. The assay was prepared as follows: CHO-K1 cells expressing recombinant human and Serotonin 5-HT7 receptors were grown, prior to analysis, in media without antibiotic. The cells were detached by gentle flushing with PBS-EDTA (5 mM EDTA), recovered by centrifugation, and resuspended in assay buffer (KRH: 5 mM KCl, 1.25 mM MgSO4, 124 mM NaCl, 25 mM HEPES, 13.3 mM Glucose, 1.25 mM KH2PO4, 1.45 mM CaCl2, 0.5 g/l BSA).
To determine agonist activity (96 well), 12 μL of cells were mixed with 12 μL of the test compound at increasing concentrations and then incubated 30 min at room temperature. After addition of the lysis buffer and 1 hour incubation, cAMP concentrations were estimated according to the manufacturer specification.
Antagonist activity was determined in 96 well plates: 12 μL of cells were mixed with 6 μL of the test compound at increasing concentrations and then incubated 10 min. Thereafter 6 μL of the reference agonist was added at a final concentration corresponding to the historical EC80. The plates were then incubated for 30 min at room temperature. After addition of the lysis buffer and 1 hour incubation, cAMP concentrations were estimated according to the manufacturer specification. IC50 values were used to determine whether a compound acted as an antagonist.

[2] = IC50 value for the Dopamine D2L receptor, antagonist mode, bound stated
[3] = IC50 value for the Dopamine D3 receptor, antagonist mode, bound stated
[4] = IC50 value for the Serotonin 5-HT1D receptor, antagonist mode, bound stated
[5] = IC50 value for the Serotonin 5-HT7 receptor, antagonist mode, bound stated
[6] = Agonist Activity (EC50), D2L, membrane extracts
[7] = EC50 value for the Dopamine D2L receptor, agonist mode, bound stated
[8] = Agonist Activity (EC50), D3, membrane extracts
[9] = Antagonist Activity (IC50), D3, membrane extracts, vs reference agonist at EC80
[10] = EC50 value for the Dopamine D3 receptor, agonist mode, bound stated
[11] = Antagonist Activity (IC50), 5-HT7, CHO-K1 cells, vs reference agonist at EC80
[12] = Antagonist Activity (IC50), D2L, membrane extracts, vs reference agonist at EC80
[13] = Antagonist Activity (IC50), 5-HT1D, membrane extracts, vs reference agonist at EC80

Sequence of Dopamine D3 receptor (P35462 whole entry): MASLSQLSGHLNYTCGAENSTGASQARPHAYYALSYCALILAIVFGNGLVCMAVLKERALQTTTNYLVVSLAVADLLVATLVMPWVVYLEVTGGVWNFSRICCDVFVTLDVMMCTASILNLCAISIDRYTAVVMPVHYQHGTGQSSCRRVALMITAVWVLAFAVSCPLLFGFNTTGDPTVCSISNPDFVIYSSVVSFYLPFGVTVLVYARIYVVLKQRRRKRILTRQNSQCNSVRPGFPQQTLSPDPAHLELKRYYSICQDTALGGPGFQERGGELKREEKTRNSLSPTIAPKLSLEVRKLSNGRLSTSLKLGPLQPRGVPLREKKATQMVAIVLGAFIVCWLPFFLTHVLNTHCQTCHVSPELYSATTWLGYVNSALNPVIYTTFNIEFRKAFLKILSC
Sequence of Dopamine D2L receptor (P14416 whole entry): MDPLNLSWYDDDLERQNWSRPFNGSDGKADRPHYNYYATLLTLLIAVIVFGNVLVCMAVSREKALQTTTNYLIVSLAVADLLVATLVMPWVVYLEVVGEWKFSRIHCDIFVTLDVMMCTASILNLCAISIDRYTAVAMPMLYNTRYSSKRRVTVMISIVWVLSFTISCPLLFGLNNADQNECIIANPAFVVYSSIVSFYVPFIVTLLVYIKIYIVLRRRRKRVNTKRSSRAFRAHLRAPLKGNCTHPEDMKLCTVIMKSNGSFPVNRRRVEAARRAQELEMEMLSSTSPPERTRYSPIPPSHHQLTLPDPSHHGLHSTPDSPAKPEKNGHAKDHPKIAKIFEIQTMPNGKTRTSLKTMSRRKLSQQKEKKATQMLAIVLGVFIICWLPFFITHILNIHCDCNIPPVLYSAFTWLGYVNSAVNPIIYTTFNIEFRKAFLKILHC
T1 sequence (P34969 whole entry): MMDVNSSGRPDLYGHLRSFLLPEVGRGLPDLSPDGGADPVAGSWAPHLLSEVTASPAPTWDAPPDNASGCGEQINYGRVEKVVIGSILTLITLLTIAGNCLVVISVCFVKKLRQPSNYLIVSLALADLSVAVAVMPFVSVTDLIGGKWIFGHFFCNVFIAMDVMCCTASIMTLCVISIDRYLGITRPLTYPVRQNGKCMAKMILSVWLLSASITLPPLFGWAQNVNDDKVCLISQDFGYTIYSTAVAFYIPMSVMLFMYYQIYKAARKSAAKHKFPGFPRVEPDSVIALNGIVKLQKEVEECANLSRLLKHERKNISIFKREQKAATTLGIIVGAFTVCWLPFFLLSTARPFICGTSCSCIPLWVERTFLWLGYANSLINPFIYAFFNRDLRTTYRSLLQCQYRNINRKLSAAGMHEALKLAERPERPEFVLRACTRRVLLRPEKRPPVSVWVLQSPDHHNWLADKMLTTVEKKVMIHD
Sequence of Serotonin 5-HT1D receptor (P28221 whole entry): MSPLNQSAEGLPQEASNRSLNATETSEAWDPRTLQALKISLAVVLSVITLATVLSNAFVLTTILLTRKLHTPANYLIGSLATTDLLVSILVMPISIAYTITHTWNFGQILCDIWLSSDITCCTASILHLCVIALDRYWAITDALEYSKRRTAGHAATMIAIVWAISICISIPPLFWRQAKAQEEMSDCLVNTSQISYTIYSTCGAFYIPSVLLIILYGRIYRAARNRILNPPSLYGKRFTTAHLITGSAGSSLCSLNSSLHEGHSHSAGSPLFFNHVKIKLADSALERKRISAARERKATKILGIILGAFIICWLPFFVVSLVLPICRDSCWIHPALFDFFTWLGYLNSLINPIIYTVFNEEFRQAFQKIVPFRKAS

| Compound | pIC50 (Dopamine D2L receptor; [2]) | pIC50 (Dopamine D2L receptor; membrane extracts, vs reference agonist at EC80, read-out: Antagonist Activity (IC50), D2L) | pIC50 (Dopamine D3 receptor; [3]) | pIC50 (Dopamine D3 receptor; membrane extracts, vs reference agonist at EC80, read-out: Antagonist Activity (IC50), D3) | pIC50 [1, 4] | pIC50 ([1]; membrane extracts, vs reference agonist at EC80, read-out: Antagonist Activity (IC50), 5-HT1D) | pIC50 (Serotonin 5-HT7 receptor; CHO-K1 cells, vs reference agonist at EC80, read-out: Antagonist Activity (IC50), 5-HT7) | pIC50 (Serotonin 5-HT7 receptor; [5]) | pEC50 (Dopamine D2L receptor; [6]) | pEC50 (Dopamine D2L receptor; [7]) | pEC50 (Dopamine D3 receptor; [8]) | pIC50 (Dopamine D3 receptor; [9]) | pEC50 (Dopamine D3 receptor; [10]) | pEC50 ([1]; Agonist Activity (EC50), 5-HT1D, membrane extracts) | pEC50 ([1]; EC50 value for the Serotonin 5-HT1D receptor, agonist mode, bound stated) | pEC50 (Serotonin 5-HT7 receptor) | pIC50 (Serotonin 5-HT7 receptor; [11]) | pIC50 (Dopamine D2L receptor; [12]) | pIC50 [1, 13] |
| --- | --- | --- | --- | --- | --- | --- | --- | --- | --- | --- | --- | --- | --- | --- | --- | --- | --- | --- | --- |
| CCN(CC(F)(F)F)C(=O)N[C@H]1C[C@@H]2c3cccc4[nH]c(C(F)(F)F)c(c34)C[C@H]2N(C)C1 [Compound A16H, 1-ethyl-3-((6aR,9S,10aR)-7-methyl-5-(trifluoromethyl)-4,6,6a,7,8,9,10,10a-octahydroindolo[4,3-fg]quinolin-9-yl)-1-(2,2,2-trifluoroethyl)urea] | > 6.00 | 6.89 | > 6.00 | 7.26 | > 6.00 | 7.85 | 6.42 | > 6.00 |  |  |  |  |  |  |  |  |  |  |  |
| CC[C@@H](CO)NC(=O)[C@@H]1C[C@@H]2c3cccc4c3c(c(C3CC3)n4C)C[C@H]2N(C)C1 [Compound D13H, (6aR,9R,10aR)-5-cyclopropyl-N—((S)-1-hydroxybutan-2-yl)-4,7-dimethyl-4,6,6a,7,8,9,10,10a-octahydroindolo[4,3-fg]quinoline-9-carboxamide] |  |  | > 6.00 |  |  |  |  | > 6.00 | 6.77 | > 6.00 | 7.32 | 6.40 | > 6.00 | 7.96 | > 6.00 | 7.40 | 6.11 |  |  |
| CCN(CC)C(=O)N[C@H]1C[C@@H]2c3cccc4[nH]c(C(F)(F)F)c(c34)C[C@H]2N(C)C1 [Compound A9H, 1,1-diethyl-3-((6aR,9S,10aR)-7-methyl-5-(trifluoromethyl)-4,6,6a,7,8,9,10,10a-octahydroindolo[4,3-fg]quinolin-9-yl)urea] | > 6.00 |  | > 6.00 |  | > 6.00 |  |  | > 6.00 | 8.34 | > 6.00 |  | 7.89 |  |  |  |  | 6.72 | 7.38 | 8.00 |
| CCN(CC)C(=O)N[C@H]1C[C@@H]2c3cccc4[nH]c(Br)c(c34)C[C@H]2N(C)C1 [Compound A8H, 3-((6aR,9S, 10aR)-5-bromo-7-methyl-4,6,6a,7,8,9,10,10a-octahydroindolo[4,3-fg]quinolin-9-yl)-1,1-diethylurea] | > 6.00 |  | > 6.00 |  | > 6.00 |  |  | > 6.00 | 8.96 | > 6.00 |  | 8.03 |  |  |  |  | 6.96 | 8.46 | 8.10 |
| CCN(CC(F)(F)F)C(=O)N[C@H]1C[C@@H]2c3cccc4[nH]c(C5CC5)c(c34)C[C@H]2N(C)C1 [Compound A17H, 3-((6aR,9S,10aR)-5-cyclopropyl-7-methyl-4,6,6a,7,8,9,10,10a-octahydroindolo[4,3-fg]quinolin-9-yl)-1-ethyl-1-(2,2,2-trifluoroethyl)urea] | > 6.00 |  | > 6.00 |  | > 6.00 |  |  | > 6.00 | 8.96 |  | 8.09 | 7.96 | > 6.00 |  |  |  | 6.85 | 8.38 | 7.30 |
